Values joined by “and” are separate entries in the source; they are usually repeats but may differ in a detail not shown here. Equal values may be shown once.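 Step 1: Grow cells in 96-well plates. Step 2: Expose to compound for 48 hours at 5 concentrations. Step 3: Interpolate endpoints linearly; if unreached, use highest concentration. GI50 is the concentration that inhibits growth by half. TGI: total growth inhibition.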
Tests used:
Experiment in all cases: inhibition of tumour cell growth, NCI panel, 48 h
UACC-257 melanoma = tested on: UACC-257 melanoma
SK-MEL-28 melanoma = tested on: SK-MEL-28 melanoma
SK-MEL-2 melanoma = tested on: SK-MEL-2 melanoma
A549 NSCLC = tested on: A549 NSCLC
OVCAR-5 ovarian = tested on: OVCAR-5 ovarian
SN12C renal = tested on: SN12C renal
MCF7 breast = tested on: MCF7 breast
M14 melanoma = tested on: M14 melanoma
HOP-92 NSCLC = tested on: HOP-92 NSCLC
SF-295 CNS = tested on: SF-295 CNS

SMILES	GI50 (UACC-257 melanoma)	TGI (UACC-257 melanoma)	GI50 (SK-MEL-28 melanoma)	TGI (SK-MEL-28 melanoma)	GI50 (SK-MEL-2 melanoma)	TGI (SK-MEL-2 melanoma)	GI50 (A549 NSCLC)	TGI (A549 NSCLC)	GI50 (OVCAR-5 ovarian)	TGI (OVCAR-5 ovarian)	GI50 (SN12C renal)	TGI (SN12C renal)	TGI (MCF7 breast)	GI50 (M14 melanoma)	TGI (M14 melanoma)	GI50 (HOP-92 NSCLC)	TGI (HOP-92 NSCLC)	GI50 (SF-295 CNS)	TGI (SF-295 CNS)	GI50 (MCF7 breast)
COc1cccc(-c2cc(-c3ccc(Nc4nc(Nc5ccc(Cl)cc5)nc(Nc5ccc(Cl)cc5)n4)cc3)nc(N)c2C#N)c1	2.03 µM	4.8 µM	1.9 µM	3.98 µM	1.74 µM	3.65 µM	9.41 µM	> 100 µM	3.3 µM	15.1 µM	4.01 µM	> 100 µM	5.84 µM	2.5 µM	7.12 µM	1.1 µM	3.41 µM	2.78 µM	10.2 µM	–
Nc1nc(N)c2nc(CNc3ccc(C(=O)NC(CCC(=O)O)C(=O)O)cc3)cnc2n1 (centres undefined)	0.0942 µM and 0.0723 µM	> 100 µM	0.941 µM	> 100 µM	> 100 µM	> 100 µM	0.032 µM and < 0.01 µM	> 100 µM	0.0373 µM and 0.0307 µM	> 100 µM	< 0.01 µM	> 100 µM	> 100 µM	< 0.01 µM	> 100 µM	> 100 µM	> 100 µM	0.0327 µM and < 0.0134 µM	> 100 µM	0.0101 µM and < 0.01 µM
O=C1Nc2ccc(I)cc2/C1=C/c1cc(Br)c(O)c(Br)c1	> 20.7 µM and 16.5 µM	> 25 µM and 69.2 µM	14.4 µM and 9.72 µM	> 72.2 µM	19.6 µM and 14.7 µM	> 25 µM and 37.5 µM	> 24.2 µM and 22.7 µM	> 25 µM and 97 µM	> 25 µM and 21.5 µM	> 25 µM and 51.7 µM	> 25 µM and 25.9 µM	> 80.8 µM	> 82.2 µM	10.8 µM and 5.03 µM	> 25 µM and 72.1 µM	15.6 µM	54.7 µM	> 15.9 µM and 17.2 µM	> 100 µM	> 20.1 µM and 15.4 µM
O=c1c2cc(F)ccc2sc2c(NCCCNCCO)nc3ccc(F)cc3c12	1.98 µM	4.03 µM	1.78 µM	3.25 µM	2.04 µM	4.34 µM	1.92 µM	4.4 µM	1.62 µM	3.04 µM	1.58 µM	3.05 µM	3.2 µM	1.85 µM	3.67 µM	1.31 µM	5.2 µM	1.77 µM	3.23 µM	1.62 µM
OC1(c2ccccc2)c2ccccc2N(c2ccccc2)c2ccc(Cl)cc21 (centres undefined)	0.201 µM	0.72 µM	0.193 µM	0.434 µM	0.24 µM	0.485 µM	0.332 µM	1.3 µM	0.457 µM	1.28 µM	0.224 µM	0.712 µM	0.894 µM	0.249 µM	0.694 µM	0.214 µM	0.703 µM	0.575 µM	2.27 µM	0.299 µM
CCCN1CCCC(c2ccc(Nc3nc(Nc4cc(F)ccc4C(N)=O)c4cc[nH]c4n3)c(OC)c2)C1 (centres undefined)	0.188 µM	4.54 µM	3.49 µM	6.93 µM	1.42 µM	5.26 µM	0.129 µM	4.16 µM	0.556 µM	5.36 µM	3.19 µM	6.71 µM	3.58 µM	1.02 µM	4.8 µM	0.013 µM	1.39 µM	3.42 µM	7.16 µM	0.0137 µM
O=C(N=Nc1c(O)[nH]c2c(Cl)cc(Cl)cc12)C(=O)Nc1cccc(C(F)(F)F)c1	–	> 100 µM	–	> 100 µM	–	> 100 µM	–	> 100 µM	–	> 100 µM	–	> 100 µM	> 100 µM	–	> 100 µM	–	> 100 µM	–	> 100 µM	–
C=C1C(=O)O[C@H]2[C@H]1CC/C(COC(=O)NCc1ccc(Cn3c(=O)sn(CCCI)c3=O)cc1)=C\CC[C@@]1(C)O[C@@H]21	1.79 µM	3.67 µM	1.92 µM	3.79 µM	2.42 µM	7.19 µM	11.2 µM	25.3 µM	1.85 µM	4.17 µM	1.57 µM	3.62 µM	3.24 µM	1.74 µM	4.69 µM	1.22 µM	2.83 µM	14.4 µM	30.8 µM	1.41 µM
COC(=O)[C@@H](C)C[C@H](Cc1ccccc1)NC(=O)c1nc([C@@H](C[C@H](C(C)C)N(C)C(=O)[C@@H](NC(=O)[C@H]2CC(=O)CCN2C)C(C)C)OC(C)=O)sc1C(C)C	> 10.8 µM	> 16.7 µM	0.524 µM	> 16.7 µM	0.104 µM	> 16.7 µM	0.775 µM	> 16.7 µM	0.617 µM	> 16.7 µM	0.462 µM	> 16.7 µM	> 16.7 µM	0.217 µM	1.18 µM	0.119 µM	> 16.7 µM	0.277 µM	3.02 µM	0.0427 µM
CC1(C)CCC(c2ccc(Cl)cc2)=C(CN2CCN(c3ccc(C(=O)NS(=O)(=O)c4ccc(N[C@H](CCN5CCOCC5)CSc5ccccc5)c(S(=O)(=O)C(F)(F)F)c4)cc3)CC2)C1	1.63 µM	3.4 µM	1.74 µM	3.22 µM	1.86 µM	4.35 µM	1.73 µM	3.58 µM	1.85 µM	4.05 µM	1.53 µM	3.33 µM	5.51 µM	1.83 µM	3.38 µM	0.0455 µM	0.245 µM	1.52 µM	3.2 µM	2.11 µM
CCCCCCCCCCCCNC(=O)N[C@H](C(=O)N[C@H]1/C=C/OCCNC(=O)/C=C/[C@H](C(C)C)NC1=O)C(C)C	20 µM	> 93.7 µM	3.28 µM	26.2 µM	4 µM	> 59.2 µM	32.3 µM	> 100 µM	6.82 µM	> 92.7 µM	23.6 µM	> 100 µM	> 100 µM	20.2 µM	> 70.3 µM	5.14 µM	58.7 µM	21.4 µM	> 100 µM	0.385 µM
CCN(CC)CCN1C(=O)c2cccc3cc(N)cc(c23)C1=O	–	25.7 µM	–	36.1 µM	–	37.6 µM	–	> 100 µM	–	15.7 µM	–	27.1 µM	> 100 µM	–	32.1 µM	–	> 100 µM	–	32.5 µM	–
COc1ncc(-c2ccc3nc(N)n(-c4ccccc4C(F)(F)F)c(=O)c3c2)cc1S(=O)(=O)Nc1ccc(F)cc1F	7.81 µM	24.5 µM	3.63 µM	14.1 µM	2.28 µM	11.9 µM	0.653 µM	> 100 µM	1.03 µM	9.81 µM	4.52 µM	> 100 µM	29.4 µM	1.23 µM	14.8 µM	0.432 µM	94.5 µM	1.41 µM	17.5 µM	2.05 µM
O=C(/C=C/c1c[nH]c2ccccc12)c1ccccc1O	–	31.5 µM	–	47.6 µM	–	18.6 µM	–	24.5 µM	–	28.8 µM	–	28.8 µM	18.7 µM	–	27 µM	–	17.1 µM	–	22.3 µM	–
CC(=O)O[C@@H]1[C@H]2O[C@H]2[C@H]2O[C@@]2(COC(=O)c2ccccc2)[C@H]1OC(C)=O	–	> 100 µM	–	> 100 µM	–	> 100 µM	–	> 100 µM	–	> 100 µM	–	> 100 µM	> 100 µM	–	> 100 µM	–	> 100 µM	–	> 100 µM	–
C=C(C)[C@@H]1CC[C@]2(C(=O)OC)CC[C@]3(C)[C@H](CC[C@@H]4[C@@]5(C)CC/C(=N\OCCC(=NCCC#N)NOCCC#N)C(C)(C)[C@@H]5CC[C@]43C)[C@@H]12	5.35 µM	> 50 µM	17.1 µM	> 50 µM	13.8 µM	> 50 µM	5.27 µM	> 50 µM	16.7 µM	> 50 µM	7.28 µM	14.7 µM	> 50 µM	11.9 µM	> 50 µM	6.9 µM	35 µM	21.4 µM	> 50 µM	3.68 µM
Nc1c2ccccc2nc2ccccc12	1.54 µM and 3.21 µM	3.06 µM and 10.1 µM	1.89 µM and 3.69 µM	3.92 µM and 13.7 µM	1.74 µM and 3.87 µM	3.41 µM and 11.4 µM	1.52 µM and 2.87 µM	3.94 µM and 8.81 µM	2.71 µM and 3.36 µM	13.4 µM and 8.16 µM	1.5 µM and 2.61 µM	12.4 µM and 10.5 µM	9.14 µM and 10.8 µM	1.7 µM and 3.21 µM	3.48 µM and 10 µM	1.63 µM and 3.71 µM	4.82 µM and 23.2 µM	1.61 µM and 3.08 µM	9.52 µM and 17.5 µM	1.62 µM and 3.02 µM
CN(C)CCCn1c2c(c3ccc(N4CCNCC4)cc3c1=O)C(=O)c1ccccc1-2	1.69 µM	3.74 µM	1.53 µM	3.33 µM	1.71 µM	3.38 µM	0.224 µM	2.23 µM	2.12 µM	5.57 µM	0.329 µM	1.79 µM	1.78 µM	1.05 µM	2.39 µM	1.72 µM	6.53 µM	1.16 µM	3.36 µM	0.296 µM
FC(F)(F)c1ccc(-c2cnc(-c3nn[nH]n3)nc2NC2CCCCCC2)cc1	> 10 µM	> 10 µM	> 10 µM	> 10 µM	> 10 µM	> 10 µM	> 10 µM	> 10 µM	> 10 µM	> 10 µM	> 10 µM	> 10 µM	> 10 µM	> 10 µM	> 10 µM	> 10 µM	> 10 µM	> 10 µM	> 10 µM	> 10 µM
N#CSc1c[nH]c2cccc(/C=C/C(=O)/C=C(O)/C=C/c3cccc4[nH]cc(SC#N)c34)c12	0.944 µM	3.38 µM	0.495 µM	1.15 µM	0.829 µM	1.93 µM	0.353 µM	2.78 µM	0.714 µM	2.04 µM	0.364 µM	1.57 µM	1.45 µM	0.437 µM	1.11 µM	0.51 µM	1.27 µM	0.746 µM	2.29 µM	0.254 µM
CC(=O)Nc1ccc(S(=O)(=O)N2C(=O)CCC2C(=O)Nc2ccccc2)cc1 (centres undefined)	1.34 µM	17.2 µM	1.79 µM	18.1 µM	1.34 µM	9.05 µM	0.721 µM	19.2 µM	3.16 µM	20.2 µM	2.68 µM	22.6 µM	14.7 µM	0.265 µM	12.5 µM	1.48 µM	5.41 µM	0.33 µM	3.41 µM	0.73 µM
COc1cc(F)c(F)c(F)c1C(=O)c1cnc(NC2CCN(S(C)(=O)=O)CC2)nc1N	3 µM	14 µM	2.24 µM	18.4 µM	3.02 µM	7.46 µM	1 µM	> 25 µM	1.45 µM	> 25 µM	1.96 µM	> 25 µM	> 25 µM	3.09 µM	10.2 µM	0.41 µM	7.11 µM	1.58 µM	> 9.45 µM	0.166 µM
COc1ccc2c(c1)OCC1c3cc(OC)ccc3OC21 (centres undefined)	> 100 µM	> 100 µM	91.2 µM	> 100 µM	94.3 µM	> 100 µM	89.1 µM	> 100 µM	80.1 µM	> 100 µM	74.3 µM	> 100 µM	> 100 µM	39 µM	> 100 µM	60.3 µM	> 100 µM	20.4 µM	> 100 µM	38.7 µM

Reference: PubChem BioAssay (NCI)
